Reference: patent US11076595B2, “1-(n,n-disubstituted carbamoyl) 4-(substituted sulfonyl)triazolin-5-one derivative, 4-(n,n-disubstituted carbamoyl) 1-(substituted sulfonyl)triazolin-5-one derivative, and herbicide containing said derivative as active ingredient” (HOKKO CHEMICAL INDUSTRY CO., LTD., priority 2017, dated 2021)

How the values were obtained:
Format in all cases: in vivo
Echinochloa crus-galli [1] = test: Test Example 11: herbicidal effect test by soil treatment in paddy field; conditions: 120 g/10a active ingredient, 14 days after treatment
Method in brief: (§1)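 Seeds were sown 0-1 cm deep in puddled, fertilised paddy soil in Wagner pots and kept under about 3 cm of flooding in a greenhouse. Diluted emulsifiable concentrate was added dropwise right after sowing at 120 g a.i. per 10 are. Suppression (%) came from dry weight versus untreated pots after 14 days, two replicates.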

Lindernia pyxidaria [2] = test: as above; conditions: 120 g/10a active ingredient, 14 days after treatment
Method in brief: as §1

Monochoria vaginalis [3] = test: as above; conditions: 120 g/10a active ingredient, 14 days after treatment
Method in brief: as §1

Scirpus juncoides [4] = test: as above; conditions: 120 g/10a active ingredient, 14 days after treatment
Method in brief: as §1

Echinochloa crus-galli [5] = test: Test Example 12: herbicidal effect test by treatment during growing period in paddy field; conditions: 120 g/10a; treatment seven days after sowing in flooded paddy pot; assessed 14 days after treatment
Procedure: (§2) This test was performed with two replications per one formulation concentration plot, and 14 days after the formulation treatments, the weed suppression rate (%) was determined according to the following equation (Math. 2). Weed suppression rate (%)=(1−average dry weight (g) of plants in treated plots/average dry weight (g) of plants in untreated plots)×100 [Math. 2]
(§3) A Wagner pot having an area of 1/10000 are was filled with paddy field soil and after adding water, a chemical fertilizer (N:P:K=17:17:17) was mixed, followed by puddling. Thereafter, 30 grains of each of Echinochloa crus-galli, broad-leaved weed (Lindernia pyxidaria, Monochoria vaginalis) and Scirpus juncoides seeds were sown to a depth of 0 to 1 cm. Immediately after the sowing, the pot was flooded, and the depth of water was kept at about 3 cm. The pot was subsequently managed in a glass greenhouse. Seven Days after sowing, an emulsifiable concentrate prepared according to Formulation Example 15 by using the compound shown in Table 10 below was diluted with water, and a predetermined amount of the water-diluted formulation was added dropwise. The application rate of the active ingredient, by conversion, corresponded to 120 g per 10 are. The test was performed with two replications per one formulation concentration plot, and 14 days after the formulation treatments, the weed suppression rate (%) was determined according to the equation (Math. 2).

Lindernia pyxidaria [6] = test: as above; conditions: 120 g/10a; treatment seven days after sowing in flooded paddy pot; assessed 14 days after treatment
Procedure: as §2, §3

Monochoria vaginalis [7] = test: as above; conditions: 120 g/10a; treatment seven days after sowing in flooded paddy pot; assessed 14 days after treatment
Procedure: as §2, §3

Scirpus juncoides [8] = test: as above; conditions: 120 g/10a; treatment seven days after sowing in flooded paddy pot; assessed 14 days after treatment
Procedure: as §2, §3

Row | Structure (SMILES) | Weed suppression rate (%) Echinochloa crus-galli (Echinochloa crus-galli [1]) [%] | Weed suppression rate (%) Lindemia pyxidaria (Lindernia pyxidaria [2]) [%] | Weed suppression rate (%) Monochoria vaginalis (Monochoria vaginalis [3]) [%] | Weed suppression rate (%) Scirpus juncoides (Scirpus juncoides [4]) [%] | Weed suppression rate (%) Echinochloa crus-galli (Echinochloa crus-galli [5]) [%] | Weed suppression rate (%) Lindemia pyxidaria (Lindernia pyxidaria [6]) [%] | Weed suppression rate (%) Monochoria vaginalis (Monochoria vaginalis [7]) [%] | Weed suppression rate (%) Scirpus juncoides (Scirpus juncoides [8]) [%]
1 | CC(C)N(C(=O)n1cnn(S(=O)(=O)c2cccc(F)c2)c1=O)c1c(F)cc(F)cc1F [Compound 11-442] | 100 | 80 | 70 | 80 | 100 | 80 | 90 | 80
2 | CC(C)N(C(=O)n1cnn(S(=O)(=O)c2cccc(F)c2)c1=O)c1c(F)c(F)cc(F)c1F [Compound 11-443] | 80 | 70 | 70 | 100 | 70 | 70 | 70 | 100
3 | CC(C)N(C(=O)n1cnn(S(=O)(=O)c2ccc(F)cc2)c1=O)c1ccccc1F [Compound 11-465] | 90 | 80 | 80 | 90 | 90 | 80 | 80 | 90
4 | CC(C)N(C(=O)n1cnn(S(=O)(=O)c2ccc(F)cc2)c1=O)c1cccc(F)c1F [Compound 11-474] | 100 | 100 | 100 | 100 | 100 | 100 | 90 | 100
5 | CC(C)N(C(=O)n1cnn(S(=O)(=O)c2ccc(F)cc2)c1=O)c1ccc(F)c(F)c1F [Compound 11-478] | 100 | 100 | 100 | 100 | 100 | 70 | 90 | 100
6 | CC(C)N(C(=O)n1cnn(S(=O)(=O)c2ccc(F)cc2)c1=O)c1c(F)cc(F)cc1F [Compound 11-479] | 100 | 100 | 80 | 100 | 100 | 70 | 80 | 80
7 | CC(C)N(C(=O)n1cnn(S(=O)(=O)c2ccc(F)cc2)c1=O)c1c(F)c(F)cc(F)c1F [Compound 11-480] | 100 | 90 | 80 | 90 | 100 | 80 | 70 | 100
8 | CC(C)N(C(=O)n1cnn(S(=O)(=O)c2ccc(F)cc2)c1=O)c1ccc(Br)cc1Cl [Compound 11-486] | 90 | 90 | 80 | 80 | 60 | 70 | 70 | 60
9 | CC(C)N(C(=O)n1cnn(S(=O)(=O)c2ccccc2Cl)c1=O)c1ccccc1F [Compound 11-502] | 90 | 80 | 80 | 90 | 90 | 80 | 80 | 90
10 | CC(C)N(C(=O)n1cnn(S(=O)(=O)c2ccccc2Cl)c1=O)c1cccc(F)c1F [Compound 11-511] | 100 | 100 | 90 | 100 | 100 | 80 | 100 | 100
11 | CC(C)N(C(=O)n1cnn(S(=O)(=O)c2ccccc2Cl)c1=O)c1ccc(F)c(F)c1F [Compound 11-515] | 100 | 90 | 80 | 100 | 100 | 70 | 100 | 100
12 | CC(C)N(C(=O)n1cnn(S(=O)(=O)c2ccccc2Cl)c1=O)c1c(F)cc(F)cc1F [Compound 11-516] | 100 | 90 | 80 | 90 | 100 | 70 | 80 | 70
13 | CC(C)N(C(=O)n1cnn(S(=O)(=O)c2ccccc2Cl)c1=O)c1ccc(F)cc1Cl [Compound 11-519] | 100 | 100 | 70 | 100 | 80 | 70 | 70 | 80
14 | Cc1ccc(N(C(=O)n2cnn(S(=O)(=O)c3ccccc3Cl)c2=O)C(C)C)c(F)c1 [Compound 11-526] | 90 | 80 | 80 | 90 | 90 | 80 | 80 | 90
15 | CC(C)N(C(=O)n1cnn(S(=O)(=O)c2ccccc2Cl)c1=O)c1ccc(Cl)cn1 [Compound 11-536] | 90 | 90 | 60 | 60 | 90 | 80 | 60 | 90
